Our source for the IC50, Papp and EC50 values is patent US10618903B2, “Heteroaryl substituted aminopyridine compounds” (BRISTOL-MYERS SQUIBB COMPANY, priority 2015, dated 2020).

pEC50, pIC50: −log10 of the molar value.

Broadly, the pIC50 is −log10 of the IC50, conventionally taken in molar units. Broadly, the Papp is a coefficient for how fast a substance crosses the barrier. Lower therefore signals poor permeation. What is called pEC50 is −log10 of the EC50, conventionally taken in molar units. A high value points to a low EC50.

The target of one data set is IRAK4 (Homo sapiens (Human), UniProt Q9NWZ3). Briefly: IRAK4 Inhibition Assay. The conditions noted are these: ATP 500 μM; IRAK4 0.6 nM. In kind it is biochemical. The essentials: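 Mobility-shift kinase assay: 0.6 nM IRAK4, 500 μM ATP, 1.5 μM fluorescent peptide, 60 min, room temperature. Percent inhibition was normalised between enzyme-free and DMSO-only wells.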
Sequence of IRAK4 (Q9NWZ3 whole entry): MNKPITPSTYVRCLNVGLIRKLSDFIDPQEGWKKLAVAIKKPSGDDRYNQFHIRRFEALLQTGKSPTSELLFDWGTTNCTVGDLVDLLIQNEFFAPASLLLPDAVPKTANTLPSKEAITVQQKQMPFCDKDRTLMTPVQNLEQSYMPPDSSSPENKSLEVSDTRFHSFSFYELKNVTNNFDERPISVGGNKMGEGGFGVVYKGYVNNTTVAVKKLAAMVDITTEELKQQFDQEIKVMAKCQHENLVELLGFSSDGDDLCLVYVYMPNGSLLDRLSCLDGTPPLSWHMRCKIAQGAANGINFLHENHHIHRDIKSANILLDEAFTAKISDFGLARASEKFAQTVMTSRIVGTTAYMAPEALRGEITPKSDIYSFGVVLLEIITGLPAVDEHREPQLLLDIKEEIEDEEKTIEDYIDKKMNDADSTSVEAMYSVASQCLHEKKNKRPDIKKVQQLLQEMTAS
The nature of another data set: Caco Permeability Assay. The conditions noted are these: human, Caco-2, Caco-2 cells, 3 μM compound. Type of data set: in vitro ADME. As for the experimental part: Thirteen to 27 days prior to assay, Caco-2 cells were seeded onto collagen-coated polycarbonate filter membranes in 24-well transwell plates at a density of 1.45×10^5 cells/cm^2, approximately 4.8×10^4 cells per well. The cells were grown in a culture medium consisting of DMEM supplemented with 10% fetal bovine serum, 10 mM HEPES, 1% nonessential amino acids, 2 mM L-glutamine, 100 U/mL penicillin-G, and 100 μg/mL streptomycin. The culture medium was replaced every 3 days and the cells were maintained at 37° C. in a 95% relative humidity and 5% CO2 atmosphere. The cells were evaluated for tight junction formation just prior to assay. The test compound was solubilized to 10 mM in 100% DMSO and diluted to 3 μM in assay buffer. Permeability studies were initiated by adding 200 μL assay buffer plus/minus compound to the apical transwell compartment and 600 μL assay buffer plus/minus compound to the basolateral compartment of the 24-well transwell low-binding cluster plate. For apical-to-basolateral (A to B) permeability (absorptive direction), buffer containing compound was placed in the apical compartment (donor wells), while buffer alone was placed in the corresponding basolateral compartments (receiver wells). For basolateral-to-apical (B to A) permeability (secretive direction), buffer containing compound was placed in the basolateral compartment (donor wells), while buffer alone was placed in the corresponding apical compartments (receiver wells). Transwells were then incubated for 2 hours at 37° C. in a 95% relative humidity and 5% CO2 atmosphere with gentle agitation. Following incubation, 100 μL was removed from each apical and basolateral compartment and transferred to 96-well low binding plates that had been previously loaded with 100 µL/well of acetonitrile containing 250 nM propranolol, 250 nM diclofenac, and 500 nM tolbutamide as internal standards. The samples were subsequently analyzed by LC-MS/MS to determine concentrations of compound.
On the technique in general: Caco-2 cells form a polarised layer with tight junctions and transporters.

In data set [1] the test system is IL-6 levels in human whole blood stimulated with a TLR2 agonist. The data set is described as follows: IRAK4 Whole Blood Assay (lipoteichoic acid/TLR2-stimulated IL-6). Type of data set: cell-based. The conditions noted are these: lipoteichoic acid 10 μg/mL, IL-6 readout. In short, it runs like this: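 IL-6 was quantified by cytometric bead assay in supernatants of human blood (ACD-A) stimulated for 5 h with lipoteichoic acid at 10 μg/mL final. Compound exposure preceded stimulation for 60 min at 37 °C, 5% CO2.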

Turning to `CC(C)(O)[C@H](F)CNC(=O)c1cnc(-c2cnn3cc(Cl)cnc23)cc1NC1CC(F)(F)C1` [Example 65, (R)-6-(6-chloropyrazolo[1,5-a]pyrimidin-3-yl)-4-((3,3-difluorocyclobutyl)amino)-N-(2-fluoro-3-hydroxy-3-methylbutyl)nicotinamide], the negative-log IC50 (pIC50) on IRAK4 is 8.40. In the data set “Caco Permeability Assay”, this compound returned a Papp at 2 h, 3 µM of 12.6 ×10⁻⁶ cm/s. For the same compound, the negative-log EC50 (pEC50) in data set [1] (Homo sapiens) is 5.46.

With `CC(C)(O)[C@H](F)CNC(=O)c1cnc(-c2cnn3cc(Cl)cnc23)cc1NC1CCCC1` [Example 67, (R)-6-(6-chloropyrazolo[1,5-a]pyrimidin-3-yl)-4-(cyclopentylamino)-N-(2-fluoro-3-hydroxy-3-methylbutyl)nicotinamide], on IRAK4, the pIC50 was 8.70. Also, the apparent permeability coefficient (Papp) at 2 h, 3 µM in “Caco Permeability Assay” was 18.4 ×10⁻⁶ cm/s. In data set [1] (Homo sapiens), this compound showed a pEC50 of 5.51.

With `CC(C)(O)[C@H](F)CNC(=O)c1cnc(-c2cnn3cc(Cl)cnc23)cc1NC1CCN(S(C)(=O)=O)CC1` [Example 68, (R)-6-(6-chloropyrazolo[1,5-a]pyrimidin-3-yl)-N-(2-fluoro-3-hydroxy-3-methylbutyl)-4-((1-(methylsulfonyl)piperidin-4-yl)amino) nicotinamide], the pIC50 at IRAK4 is 8.70. Moreover, in “Caco Permeability Assay”, the apparent permeability (Papp) at 2 h, 3 µM was less than 1.5 ×10⁻⁶ cm/s. Further, the pEC50 in data set [1] (Homo sapiens) was 6.38.

With `CC[C@@H](C)Nc1cc(-c2cnn3cc(Cl)cnc23)ncc1C(=O)NC[C@@H](F)C(C)(C)O` [Example 70, 4-(((R)-sec-butyl)amino)-6-(6-chloropyrazolo[1,5-a]pyrimidin-3-yl)-N—((R)-2-fluoro-3-hydroxy-3-methylbutyl)nicotinamide], the pIC50 at IRAK4 is 8.52. In addition, the Papp at 2 h, 3 µM in “Caco Permeability Assay” worked out at 7.3 ×10⁻⁶ cm/s. Further, the negative logarithm of the EC50 (pEC50) in data set [1] (Homo sapiens) is 6.08.

As for `CC(C)(O)[C@H](F)CNC(=O)c1cnc(-c2cnn3cc(Cl)cnc23)cc1Nc1cnn(CC(F)F)c1` [Example 71, (R)-6-(6-chloropyrazolo[1,5-a]pyrimidin-3-yl)-4-((1-(2,2-difluoroethyl)-1H-pyrazol-4-yl)amino)-N-(2-fluoro-3-hydroxy-3-methylbutyl)nicotinamide], the pIC50 at IRAK4 was 9.00. The Papp at 2 h, 3 µM in the data set “Caco Permeability Assay” came to 1.7 ×10⁻⁶ cm/s. Also, the pEC50 in data set [1] (Homo sapiens) is 7.15.

Take `CC(C)(O)[C@H](F)CNC(=O)c1cnc(-c2cnn3cc(Cl)cnc23)cc1NC12CCC(O)(CC1)C2` [Example 73, (R)-6-(6-chloropyrazolo[1,5-a]pyrimidin-3-yl)-N-(2-fluoro-3-hydroxy-3-methylbutyl)-4-((4-hydroxybicyclo[2.2.1]heptan-1-yl)amino)nicotinamide]: at IRAK4, the pIC50 is 8.70. The compound also registered a Papp at 2 h, 3 µM in “Caco Permeability Assay” of less than 1.5 ×10⁻⁶ cm/s. The compound further gave a pEC50 in data set [1] (Homo sapiens) of 6.15.

On to `CC(O)CCNc1cc(-c2cnn3cc(Cl)cnc23)ncc1C(=O)NC[C@@H](F)C(C)(C)O` (stereo partly drawn) [Example 82, 6-(6-chloropyrazolo[1,5-a]pyrimidin-3-yl)-N—((R)-2-fluoro-3-hydroxy-3-methylbutyl)-4-((3-hydroxybutyl)amino)nicotinamide], for which, at IRAK4, the pIC50 is 8.22. In the data set “Caco Permeability Assay”, this compound had an apparent permeability coefficient (Papp) at 2 h, 3 µM of less than 1.5 ×10⁻⁶ cm/s. The same compound showed a pEC50 in data set [1] (Homo sapiens) of 6.24.

Take `CC(C)(O)[C@H](F)CNC(=O)c1cnc(-c2cnn3cc(Cl)cnc23)cc1NC1CCC(F)C1` (stereo partly drawn) [Example 83, 6-(6-chloropyrazolo[1,5-a]pyrimidin-3-yl)-N—((R)-2-fluoro-3-hydroxy-3-methylbutyl)-4-((3-fluorocyclopentyl)amino)nicotinamide]: the negative logarithm of the IC50 (pIC50) at IRAK4 is 9.00. For the same compound, the Papp at 2 h, 3 µM in the data set “Caco Permeability Assay” came out at 15.9 ×10⁻⁶ cm/s. The pEC50 in data set [1] is 6.09.

For the compound `CC(C)Nc1cc(-c2cnn3cc(C#N)cnc23)ncc1C(=O)NC[C@@H](F)C(C)(C)O` [Example 87, (R)-6-(6-cyanopyrazolo[1,5-a]pyrimidin-3-yl)-N-(2-fluoro-3-hydroxy-3-methylbutyl)-4-(isopropylamino)nicotinamide], on IRAK4, the negative-log IC50 (pIC50) was 8.70. Moreover, the apparent permeability (Papp) at 2 h, 3 µM in the data set “Caco Permeability Assay” is 5.6 ×10⁻⁶ cm/s. This compound also gave a pEC50 in data set [1] (Homo sapiens) of 6.60.

In the case of `CC(C)(O)[C@H](F)CNC(=O)c1cnc(-c2cnn3cc(C#N)cnc23)cc1NC1CCOCC1` [Example 90, (R)-6-(6-cyanopyrazolo[1,5-a]pyrimidin-3-yl)-N-(2-fluoro-3-hydroxy-3-methylbutyl)-4-((tetrahydro-2H-pyran-4-yl)amino)nicotinamide], at IRAK4, the pIC50 was 8.40. The same compound registered an apparent permeability (Papp) at 2 h, 3 µM in the data set “Caco Permeability Assay” of 2.8 ×10⁻⁶ cm/s. Further, in data set [1] (Homo sapiens), the negative-log EC50 (pEC50) is 6.40.

Regarding `CC(C)(O)[C@H](F)CNC(=O)c1cnc(-c2cnn3cc(C#N)cnc23)cc1NC1CC1` [Example 92, (R)-6-(6-cyanopyrazolo[1,5-a]pyrimidin-3-yl)-4-(cyclopropylamino)-N-(2-fluoro-3-hydroxy-3-methylbutyl) nicotinamide], the negative-log IC50 (pIC50) on IRAK4 is 7.70. The same compound came in with a Papp at 2 h, 3 µM in “Caco Permeability Assay” of 7.4 ×10⁻⁶ cm/s. The compound further had a negative logarithm of the EC50 (pEC50) in data set [1] (Homo sapiens) of 6.14.

For `CCNc1cc(-c2cnn3cc(C#N)cnc23)ncc1C(=O)NC[C@@H](F)C(C)(C)O` [Example 93, (R)-6-(6-cyanopyrazolo[1,5-a]pyrimidin-3-yl)-4-(ethylamino)-N-(2-fluoro-3-hydroxy-3-methylbutyl)nicotinamide], the negative-log IC50 (pIC50) on IRAK4 was 8.22. The Papp at 2 h, 3 µM in the data set “Caco Permeability Assay” came to 7.2 ×10⁻⁶ cm/s. The negative-log EC50 (pEC50) in data set [1] (Homo sapiens) is 5.78.

`CC[C@@H](C)Nc1cc(-c2cnn3cc(C#N)cnc23)ncc1C(=O)NC[C@@H](F)C(C)(C)O` [Example 97, 4-(((R)-sec-butyl)amino)-6-(6-cyanopyrazolo[1,5-a]pyrimidin-3-yl)-N—((R)-2-fluoro-3-hydroxy-3-methylbutyl)nicotinamide]: on IRAK4, the pIC50 is 8.40. This compound yielded an apparent permeability coefficient (Papp) at 2 h, 3 µM in the data set “Caco Permeability Assay” of 8 ×10⁻⁶ cm/s. The pEC50 in data set [1] (Homo sapiens) is 5.80.

`CC(C)Nc1cc(-c2cnn3cc(C#N)cnc23)ncc1C(=O)N[C@H]1CC[C@H](C(C)(C)O)CC1` [Example 104, 6-(6-cyanopyrazolo[1,5-a]pyrimidin-3-yl)-N-((1r,4r)-4-(2-hydroxypropan-2-yl)cyclohexyl)-4-(isopropylamino)nicotinamide]: the pIC50 on IRAK4 is 8.15. In the data set “Caco Permeability Assay”, this compound had a Papp at 2 h, 3 µM of 16.2 ×10⁻⁶ cm/s. This compound had a pEC50 in data set [1] (Homo sapiens) of 6.10.

Consider `CC(C)(O)[C@H](F)CNC(=O)c1cnc(-c2cnn3cc(C#N)cnc23)cc1N[C@@H]1CCC[C@@H]1F` [Example 105, 6-(6-cyanopyrazolo[1,5-a]pyrimidin-3-yl)-N—((R)-2-fluoro-3-hydroxy-3-methylbutyl)-4-(((1R,2S)-2-fluorocyclopentyl)amino) nicotinamide], for which, at IRAK4, the negative logarithm of the IC50 (pIC50) was 8.15. In the data set “Caco Permeability Assay”, this compound displayed a Papp at 2 h, 3 µM of 8.6 ×10⁻⁶ cm/s. In data set [1] (Homo sapiens), this compound gave a negative-log EC50 (pEC50) of 6.62.

With `CC(CCF)Nc1cc(-c2cnn3cc(C#N)cnc23)ncc1C(=O)NC[C@@H](F)C(C)(C)O` (stereo partly drawn) [Example 106, 6-(6-cyanopyrazolo[1,5-a]pyrimidin-3-yl)-N—((R)-2-fluoro-3-hydroxy-3-methylbutyl)-4-((4-fluorobutan-2-yl)amino)nicotinamide], the pIC50 on IRAK4 is 8.40. Further, the apparent permeability (Papp) at 2 h, 3 µM in “Caco Permeability Assay” stood at 7 ×10⁻⁶ cm/s. The same compound had a negative-log EC50 (pEC50) in data set [1] (Homo sapiens) of 5.99.

For the compound `CNC(=O)c1ccc(Nc2cc(-c3cnn4cc(C#N)cnc34)ncc2C(=O)NC[C@@H](F)C(C)(C)O)cc1` [Example 110, (R)-6-(6-cyanopyrazolo[1,5-a]pyrimidin-3-yl)-N-(2-fluoro-3-hydroxy-3-methylbutyl)-4-((4-(methylcarbamoyl)phenyl)amino) nicotinamide], the negative-log IC50 (pIC50) on IRAK4 is 8.52. In “Caco Permeability Assay”, the Papp at 2 h, 3 µM was less than 1.5 ×10⁻⁶ cm/s. This compound gave a negative logarithm of the EC50 (pEC50) in data set [1] (Homo sapiens) of 6.57.

Take `COc1cnc(N2CC[C@@H](Nc3cc(-c4cnn5cc(C#N)cnc45)ncc3C(=O)NC[C@@H](F)C(C)(C)O)C2)nc1` [Example 115, 6-(6-cyanopyrazolo[1,5-a]pyrimidin-3-yl)-N—((R)-2-fluoro-3-hydroxy-3-methylbutyl)-4-(((R)-1-(5-methoxypyrimidin-2-yl)pyrrolidin-3-yl)amino)nicotinamide]: the pIC50 on IRAK4 is 8.22. In the data set “Caco Permeability Assay”, this compound registered an apparent permeability (Papp) at 2 h, 3 µM of less than 1.5 ×10⁻⁶ cm/s. The compound also showed a pEC50 in data set [1] (Homo sapiens) of 5.69.

In the case of `CC(C)Nc1cc(-c2cnn3cc(F)cnc23)ncc1C(=O)NC[C@@H](F)C(C)(C)O` [Example 130, (R)—N-(2-fluoro-3-hydroxy-3-methylbutyl)-6-(6-fluoropyrazolo[1,5-a]pyrimidin-3-yl)-4-(isopropylamino)nicotinamide], on IRAK4, the pIC50 was 7.77. The compound further had an apparent permeability (Papp) at 2 h, 3 µM in “Caco Permeability Assay” of 22.1 ×10⁻⁶ cm/s. The pEC50 in data set [1] (Homo sapiens) is 5.72.
